Test results: US12649750B2, “Macrocyclic compounds, compositions, and methods of using thereof” (Sionna Therapeutics Inc., priority 2022, dated 2026)

Key:
NBD1 = target: T1, NBD1 (Homo sapiens, UniProt P13569); experiment: Aggregation analysis using differential static light scattering (DSLS), thermal stability of NBD1 (ΔTagg); format: binding; details: ΔTagg versus DMSO control, NBD1 0.2 mg/ml
T1 construct: Purified recombinant NBD1 was produced using previously described methods; made in house
Outline: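 Differential static light scattering read from 25° C. to 70° C. every 0.5° C., ramp 1° C./min, on recombinant NBD1 (0.2 mg/ml; Tris/NaCl/MgCl2 buffer with 2 mM ATP, 2 mM DTT, pH 7.6, 1% glycerol) plus compound. Reported ΔTagg subtracts averaged DMSO Tagg from inflection-point Tagg; categories A ≤5, B >5-10, C >10-25° C.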

CFTR = target: T2, CFTR (Homo sapiens, UniProt P13569, DEL508-508); experiment: TECC24 AUC fold over DMSO @10 μM, CFTR-mediated transepithelial chloride transport in CF-HBE cells; format: cell-based; details: test agent AUC divided by DMSO vehicle AUC, primary CF-HBE cells, ΔF508 homozygous donor, 48 hours incubation
T2 construct: Primary human bronchial epithelial cells from a ΔF508 homozygous CF donor; host or cells: primary human bronchial epithelial cells (CF-HBE), ΔF508 homozygous donor
Outline: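 ΔF508-homozygous primary bronchial epithelial cells incubated 48 h at 36.5° C with compound (10 μM) in IL-13-containing medium, then TECC24 current-clamp recording in pH 7.4 Hepes saline with benzamil 10 μM, forskolin 10 μM, then CFTR inhibitor-172 20 μM. Equivalent Cl− current AUC between forskolin and inhibitor, expressed as fold over DMSO.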

T1 sequence (P13569 423-646 limits assumed): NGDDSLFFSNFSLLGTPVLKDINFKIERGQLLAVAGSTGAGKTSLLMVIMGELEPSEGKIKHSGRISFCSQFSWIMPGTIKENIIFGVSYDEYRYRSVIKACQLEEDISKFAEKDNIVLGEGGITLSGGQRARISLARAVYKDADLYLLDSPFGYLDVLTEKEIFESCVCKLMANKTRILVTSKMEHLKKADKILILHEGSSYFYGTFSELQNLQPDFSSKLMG
T2 sequence (P13569 with tags, fused parts or gaps DEL508-508): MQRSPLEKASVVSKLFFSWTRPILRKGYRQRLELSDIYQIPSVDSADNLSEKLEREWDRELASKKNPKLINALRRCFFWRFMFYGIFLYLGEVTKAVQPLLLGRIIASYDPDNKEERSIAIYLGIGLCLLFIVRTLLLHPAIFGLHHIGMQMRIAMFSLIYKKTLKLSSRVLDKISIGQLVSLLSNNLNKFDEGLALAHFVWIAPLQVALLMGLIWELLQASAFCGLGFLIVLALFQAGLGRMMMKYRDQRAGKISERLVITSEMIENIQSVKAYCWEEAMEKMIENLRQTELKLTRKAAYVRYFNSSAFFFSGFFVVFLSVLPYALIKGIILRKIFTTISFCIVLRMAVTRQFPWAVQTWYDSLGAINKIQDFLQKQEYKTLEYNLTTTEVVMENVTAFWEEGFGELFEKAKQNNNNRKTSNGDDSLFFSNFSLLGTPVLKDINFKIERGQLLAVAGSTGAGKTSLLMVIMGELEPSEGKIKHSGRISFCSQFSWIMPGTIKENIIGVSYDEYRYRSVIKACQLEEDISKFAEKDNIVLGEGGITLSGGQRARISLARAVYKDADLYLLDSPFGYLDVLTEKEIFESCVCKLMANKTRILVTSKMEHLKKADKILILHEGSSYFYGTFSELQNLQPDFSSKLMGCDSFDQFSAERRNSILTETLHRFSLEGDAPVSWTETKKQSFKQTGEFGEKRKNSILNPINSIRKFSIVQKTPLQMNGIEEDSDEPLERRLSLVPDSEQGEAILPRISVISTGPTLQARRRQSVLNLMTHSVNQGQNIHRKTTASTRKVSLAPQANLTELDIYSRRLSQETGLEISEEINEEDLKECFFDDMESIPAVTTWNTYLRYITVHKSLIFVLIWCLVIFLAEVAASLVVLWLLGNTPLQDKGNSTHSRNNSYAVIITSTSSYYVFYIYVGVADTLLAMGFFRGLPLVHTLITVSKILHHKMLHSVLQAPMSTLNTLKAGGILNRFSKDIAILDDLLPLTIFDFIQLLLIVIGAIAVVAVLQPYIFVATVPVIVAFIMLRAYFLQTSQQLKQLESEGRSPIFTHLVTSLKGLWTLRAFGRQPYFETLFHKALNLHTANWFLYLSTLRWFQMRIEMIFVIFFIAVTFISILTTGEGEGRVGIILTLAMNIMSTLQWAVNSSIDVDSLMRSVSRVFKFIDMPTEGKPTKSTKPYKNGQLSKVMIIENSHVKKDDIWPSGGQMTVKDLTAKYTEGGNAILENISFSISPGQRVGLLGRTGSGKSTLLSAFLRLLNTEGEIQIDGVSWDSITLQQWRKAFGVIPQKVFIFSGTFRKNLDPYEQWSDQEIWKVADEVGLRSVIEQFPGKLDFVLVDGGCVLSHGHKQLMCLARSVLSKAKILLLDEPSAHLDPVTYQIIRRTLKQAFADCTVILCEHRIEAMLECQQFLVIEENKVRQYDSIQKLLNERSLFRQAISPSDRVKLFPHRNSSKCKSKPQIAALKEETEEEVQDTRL

SMILES	DSLS 3D (100 μM ΔT) (NBD1)	TECC (AUC, 10 μM) (CFTR)
Cn1nc2nc1-c1cc(ccc1F)Oc1c(F)cc3[nH]ccc3c1CCS(=O)(=O)CC(C)(C)CCCC2(C)c1cccc(CC2CC(=O)NC2=O)c1 (single isomer, unassigned) [Compound 196A, 3-[[3-(22,28-difluoro-3,6,10,10-tetramethyl-12,12-dioxo-24-oxa-12λ6-thia-3,4,19,30-tetrazapentacyclo[23.3.1.12,5.015,23.016,20]triaconta-1(29),2(30),4,15,17,20,22,25,27-nonaen-6-yl)phenyl]methyl]pyrrolidine-2,5-dione]	C (a value greater than 10 °C and less than or equal to 25 °C is marked “C”)	A (a TECC value less than 12 is marked “A”)
Cn1nc2nc1-c1cc(ccc1F)Oc1c(F)cc3[nH]ccc3c1CCS(=O)(=O)CC(C)(C)CCCC2(C)c1cccc(CC2CC(=O)NC2=O)c1 (single isomer, unassigned) [Compound 196B, 3-[[3-(22,28-difluoro-3,6,10,10-tetramethyl-12,12-dioxo-24-oxa-12λ6-thia-3,4,19,30-tetrazapentacyclo[23.3.1.12,5.015,23.016,20]triaconta-1(29),2(30),4,15,17,20,22,25,27-nonaen-6-yl)phenyl]methyl]pyrrolidine-2,5-dione]	A (an ΔTagg value less than or equal to 5 °C is marked “A”)	A (a TECC value less than 12 is marked “A”)
C[C@@H](Cc1cccc([C@@]2(C)CCCC(C)(C)CS(=O)(=O)CCc3c(c(F)cc4[nH]ccc34)[S+]([O-])c3ccc(F)c(c3)-c3nc2nn3C)c1)C(=O)O (single isomer, unassigned) [Compound 204]	C (a value greater than 10 °C and less than or equal to 25 °C is marked “C”)	C (a value between 20 and 80 is marked “C”)
C[C@@H](Cc1cccc([C@@]2(C)CCCC(C)(C)CS(=O)(=O)CCc3c(c(F)cc4[nH]ccc34)[S+]([O-])c3ccc(F)c(c3)-c3nc2nn3C)c1)C(=O)O (single isomer, unassigned) [Compound 205]	B (a value above 5 °C and less than or equal to 10 °C is marked “B”)	A (a TECC value less than 12 is marked “A”)
C[C@H](Cc1cccc([C@@]2(C)CCCC(C)(C)CS(=O)(=O)CCc3c(c(F)cc4[nH]ccc34)[S+]([O-])c3ccc(F)c(c3)-c3nc2nn3C)c1)C(=O)O (single isomer, unassigned) [Compound 206A]	C (a value greater than 10 °C and less than or equal to 25 °C is marked “C”)	C (a value between 20 and 80 is marked “C”)
C[C@H](Cc1cccc([C@@]2(C)CCCC(C)(C)CS(=O)(=O)CCc3c(c(F)cc4[nH]ccc34)[S+]([O-])c3ccc(F)c(c3)-c3nc2nn3C)c1)C(=O)O (single isomer, unassigned) [Compound 206B]	B (a value above 5 °C and less than or equal to 10 °C is marked “B”)	A (a TECC value less than 12 is marked “A”)
Cn1nc2nc1-c1cc(ccc1F)[S+]([O-])c1c(F)cc3[nH]ccc3c1CCS(=O)(=O)CC(C)(C)CCC[C@]2(C)c1cccc(CC(=O)O)c1 (single isomer, unassigned) [Compound 209A]	B (a value above 5 °C and less than or equal to 10 °C is marked “B”)	A (a TECC value less than 12 is marked “A”)
Cn1nc2nc1-c1cc(ccc1F)[S+]([O-])c1c(F)cc3[nH]ccc3c1CCS(=O)(=O)CC(C)(C)CCC[C@]2(C)c1cccc(CC(=O)O)c1 (single isomer, unassigned) [Compound 209B]	C (a value greater than 10 °C and less than or equal to 25 °C is marked “C”)	C (a value between 20 and 80 is marked “C”)
C[C@@H](Cc1cccc([C@@]2(C)CCCC(C)(C)CS(=O)(=O)CCc3c(c(F)cc4[nH]ccc34)[S+]([O-])c3cccc(c3)-c3nc2nn3C)c1)C(=O)O (single isomer, unassigned) [Compound 211A]	C (a value greater than 10 °C and less than or equal to 25 °C is marked “C”)	B (a value between 12-20 is marked “B”)
C[C@@H](Cc1cccc([C@@]2(C)CCCC(C)(C)CS(=O)(=O)CCc3c(c(F)cc4[nH]ccc34)[S+]([O-])c3cccc(c3)-c3nc2nn3C)c1)C(=O)O (single isomer, unassigned) [Compound 211B]	C (a value greater than 10 °C and less than or equal to 25 °C is marked “C”)	A (a TECC value less than 12 is marked “A”)
Cn1nc2nc1-c1cc(ccc1F)[S+]([O-])c1c(F)cc3[nH]ccc3c1CCS(=O)(=O)CC(C)(C)CCC[C@]2(C)c1cccc(CCC(=O)O)c1 (single isomer, unassigned) [Compound 215A]	C (a value greater than 10 °C and less than or equal to 25 °C is marked “C”)	A (a TECC value less than 12 is marked “A”)
Cn1nc2nc1-c1cc(ccc1F)[S+]([O-])c1c(F)cc3[nH]ccc3c1CCS(=O)(=O)CC(C)(C)CCC[C@]2(C)c1cccc(CCC(=O)O)c1 (single isomer, unassigned) [Compound 215B]	C (a value greater than 10 °C and less than or equal to 25 °C is marked “C”)	C (a value between 20 and 80 is marked “C”)
Cn1nc2nc1-c1cc(ccc1F)[S+]([O-])c1c(F)cc3[nH]ccc3c1CCS(=O)(=O)CC(C)(C)CCC[C@]2(C)c1cccc(CCO)c1 (single isomer, unassigned) [Compound 216A]	B (a value above 5 °C and less than or equal to 10 °C is marked “B”)	B (a value between 12-20 is marked “B”)
Cn1nc2nc1-c1cc(ccc1F)[S+]([O-])c1c(F)cc3[nH]ccc3c1CCS(=O)(=O)CC(C)(C)CCC[C@]2(C)c1cccc(CCO)c1 (single isomer, unassigned) [Compound 216B]	C (a value greater than 10 °C and less than or equal to 25 °C is marked “C”)	C (a value between 20 and 80 is marked “C”)
COCC(Cc1cccc([C@@]2(C)CCCC(C)(C)CS(=O)(=O)CCc3c(c(F)cc4[nH]ccc34)[S+]([O-])c3ccc(F)c(c3)-c3nc2nn3C)c1)C(=O)O (single isomer, unassigned) [Compound 218A]	B (a value above 5 °C and less than or equal to 10 °C is marked “B”)	A (a TECC value less than 12 is marked “A”)
COCC(Cc1cccc([C@@]2(C)CCCC(C)(C)CS(=O)(=O)CCc3c(c(F)cc4[nH]ccc34)[S+]([O-])c3ccc(F)c(c3)-c3nc2nn3C)c1)C(=O)O (single isomer, unassigned) [Compound 218B]	C (a value greater than 10 °C and less than or equal to 25 °C is marked “C”)	C (a value between 20 and 80 is marked “C”)
Cn1nc2nc1-c1cc(ccc1F)[S+]([O-])c1c(F)cc3[nH]ccc3c1CCS(=O)(=O)CC(C)(C)CCC[C@]2(C)c1cccc(CCS(C)(=O)=O)c1 (single isomer, unassigned) [Compound 220A]	A (an ΔTagg value less than or equal to 5 °C is marked “A”)	A (a TECC value less than 12 is marked “A”)
Cn1nc2nc1-c1cc(ccc1F)[S+]([O-])c1c(F)cc3[nH]ccc3c1CCS(=O)(=O)CC(C)(C)CCC[C@]2(C)c1cccc(CCS(C)(=O)=O)c1 (single isomer, unassigned) [Compound 220B]	C (a value greater than 10 °C and less than or equal to 25 °C is marked “C”)	C (a value between 20 and 80 is marked “C”)
C[C@@H](Cc1cccc([C@@]2(C)CCCC(C)(C)CS(=O)(=O)CCc3c(c(F)cc4[nH]ccc34)[S+]([O-])c3ccnc(c3)-c3nc2nn3C)c1)C(=O)O (single isomer, unassigned) [Compound 222A]	B (a value above 5 °C and less than or equal to 10 °C is marked “B”)	C (a value between 20 and 80 is marked “C”)
C[C@@H](Cc1cccc([C@@]2(C)CCCC(C)(C)CS(=O)(=O)CCc3c(c(F)cc4[nH]ccc34)[S+]([O-])c3ccnc(c3)-c3nc2nn3C)c1)C(=O)O (single isomer, unassigned) [Compound 222B]	C (a value greater than 10 °C and less than or equal to 25 °C is marked “C”)	C (a value between 20 and 80 is marked “C”)
Cn1nc2nc1-c1cc(ccc1F)[S+]([O-])c1c(F)cc3[nH]ccc3c1CCS(=O)(=O)CC(C)(C)CCC[C@]2(C)c1ccccc1 (single isomer, unassigned) [Compound 223A]	A (an ΔTagg value less than or equal to 5 °C is marked “A”)	A (a TECC value less than 12 is marked “A”)
Cn1nc2nc1-c1cc(ccc1F)[S+]([O-])c1c(F)cc3[nH]ccc3c1CCS(=O)(=O)CC(C)(C)CCC[C@]2(C)c1ccccc1 (single isomer, unassigned) [Compound 223B]	C (a value greater than 10 °C and less than or equal to 25 °C is marked “C”)	C (a value between 20 and 80 is marked “C”)
Cn1nc2nc1-c1cc(ccn1)[S+]([O-])c1c(F)cc3[nH]ccc3c1CCS(=O)(=O)CC(C)(C)CCC[C@]2(C)c1cccc(CCC(=O)O)c1 (single isomer, unassigned) [Compound 224]	C (a value greater than 10 °C and less than or equal to 25 °C is marked “C”)	C (a value between 20 and 80 is marked “C”)
